# Earlier results as cited in US12029811B2, “Formulation and method for the treatment of androgenic alopecia” (CENTRO INTERNACIONAL DE COSMIATRÍA, S.A.P.I. DE C.V., priority 2018, dated 2024).
# How the values were obtained:
# [1] = test system: patients; details: oral, 5 mg tablets; impotence, erection failure, decreased libido, gynecomastia
# [2] = test system: alopecia; details: topical 5% solution (male) or 2% (female alopecia)
Structure (SMILES),Side effects (in words) [1],Individuals responding to the treatment [2] [%]
"CC(C)(C)NC(=O)[C@H]1CC[C@H]2[C@@H]3CC[C@H]4NC(=O)C=C[C@]4(C)[C@H]3CC[C@]12C [Finasteride, N-(1,1-dimethylethyl)-3-oxo-4-aza 5a-androst-1-en-17β-carboxamide]",side effects were significant,
"Nc1cc(N2CCCCC2)nc(N)[n+]1[O-] [Minoxidil, 2,6-diamino-4-(piperidin-1-yl) pyrimidine 1-oxide]",,≤ 40
